Assay [1] relates to A549 spheroids. The assay can be described thus: A549 multicellular tumour spheroids. The format is cell-based, human. The method, then:
(§1) FIG. 5A) is a series of images of HeLa multicellular tumor spheroids (spheroids) treated with control (500 nM C87), empty nanoparticles, 500 nM C75 and 250 nM C75-loaded nanoparticles over 3 days. […] The scale bar for all images is 100 μm. FIG. 5B) is a series images of HeLa spheroids after three days of treatment with control (500 nM C87) or 500 nM C75. The spheroids were stained for fluorescein diacetate (to detect live cells) and propidium iodide (to detect dead cells). […] The scale bar for all images is 100 μm. FIG. 5C) is a series of images of HCT116 spheroids treated with control (1 μM C87), 500 nM C75, 1 μM C75 and 500 nM C75-loaded nanoparticles over 5 days. […] The borders of the spheroids treated with 1 μM C75 or with 500 nM C75-loaded nanoparticles became highly irregular, indicative of loss of spheroid integrity. FIG. 5D) is a series images of HCT116 spheroids after six days of treatment with control (1 μM C87) or 1 μM C75. The spheroids were stained for fluorescein diacetate (live cells) and propidium iodide (dead cells). […] FIG. 5E) is a line graph showing the growth in surface area (%) of HCT116 spheroids treated with control (1 μM C87), 500 nM C75 and 1 μM C75 after six days. FIG. 5F) is a series of images of A549 spheroids treated with control (750 nM C87), 500 nM C75, 1 μM C75 and 500 nM C75-loaded nanoparticles over 5 days. […] The scale bar for all images is 100 μm. […]

Assay [2] relates to MCF-10A cells. The assay can be described thus: Mitotic spindle phenotype in MCF-10A cells. It counts as cell-based. The settings on record: 300 nM, 6-8 hours. The method, then: (§2) FIG. 2A) is a line graph showing the percentage of HCT116 (p53−/−) cells, A549 cells, HeLa cells and H1299 cells in mitosis after treatment with various concentrations of C75 for one population doubling time. All of the cell lines show an increase in the proportion of mitotic cells after treatment with 200 nM C75. The bars indicate standard deviation. […] While the mitotic spindles were not dramatically altered by C75 in HFF1 cells, they were monopolar (as shown) or fragmented in the other cell types. […] The mitotic spindles were more strongly fragmented after C75 treatment in these cells vs. the cells in FIG. 2B). […] While mitotic spindles recovered bipolarity after removing nocodazole, they remained multipolar after removing C75. FIG. 2F) is a series of time-lapse images of a live HeLa cell expressing GFP:tubulin after treatment with C75 as shown in 2D) and 2E). The scale bar for all cells is 10 μm. FIG. 2G) is a schematic showing the putative target for C75. […]
(§3) C75 was also tested for efficacy in different cancer cell lines. […] To further assess the role of C75 in affecting centrosomes, HeLa cells were treated with C75 for a short period of time (5 minutes), then C75 was removed and the cells were analyzed for spindle phenotypes (schematic in FIG. 2D). […]

Assay [3] deals with A549 cells. Kind of assay: Mitotic spindle phenotype in A549 cells. The format is cell-based, human. The settings on record: A549, 300 nM, 6-8 hours. The procedure: as §2, §3
For assay [4], the system named is BT-549 cells. Kind of assay: Mitotic spindle phenotype in BT-549 cells. The format is cell-based, human. The settings on record: BT-549, 300 nM, 6-8 hours. The procedure: as §2, §3
The test system of assay [5] is HCT116 (p53-/-) cells. Kind of assay: Mitotic arrest (percentage of cells in mitosis) in HCT116 cells. The format is cell-based. The settings on record: HCT116, within one population doubling time. The procedure: as §2, §3
For assay [6], the system named is HCT116 spheroids. Kind of assay: HCT116 multicellular tumour spheroids. It counts as cell-based. The method, then:
as §1

Where [7] appears, read: 500 nM or 1 μM C75, 500 nM C75-loaded nanoparticles, over 5 days.

Molecules are shown by their SMILES.

`COc1ccc(S(=O)(=O)N2Cc3ccccc3-c3sc(Br)cc32)cc1` [Compound C75]: the “effect on growth of A549 spheroids” value in assay [1] (setting [7]) was “regress the growth”. The “live/dead staining of spheroids (fluorescein diacetate / propidium iodide)” value in assay [1] (A549 spheroids, 1 μM, six days) is “fewer live cells”; in assay [6] (HCT116 spheroids, 1 μM, six days), “much smaller after C75-treatment, but still contained live cells”. Also, the mitotic spindle phenotype entry is “mix of monopolar, bipolar and multipolar spindles” in assay [2]; “most of the spindles were severely fragmented” in assay [3]; “most of the spindles were severely fragmented” in assay [4]. Moreover, the “concentration causing mitotic arrest” value in assay [5] was 100 to 200 nM. The “effect on growth of HCT116 spheroids” value in assay [6] (setting [7]) is recorded as “regress the growth”.
